Results: patent US20130324609A1, “DEPRESSION DISORDER THERAPEUTICS WITH CREATINE ANALOGS” (UNIVERSITY OF UTAH RESEARCH FOUNDATION, priority 2010, published 2013)

Legend:
Type in all cases: in vivo, human
[1] = test system: females between 13-18 years of age with a primary diagnosis of MDD, fluoxetine-treated (SSRI-resistant depression); test: Open-label adjunctive creatine study: Children's Depression Rating Scale-Revised (CDRS-R) raw score
Protocol: Approval for the study was obtained from the University of Utah Institutional Review Board (IRB). Informed consent consisted of written parental permission as well as written assent from participants. The study was conducted under U.S. Food and Drug Administration (FDA) Investigational New Drug Application #104,586. An external Data Safety and Monitoring Board vested with authority to halt the trial was established, and the study was conducted in accordance of the principles of Good Clinical Practice (GCP).
Participants were recruited through clinician referrals and IRB-approved advertising. Consecutive patients who met inclusion criteria were enrolled. Inclusion criteria included the following: females between 13-18 years of age with a primary diagnosis of MDD and depressive symptoms persisting for >2 weeks at baseline; fluoxetine treatment for >8 weeks with >4 weeks at a dose of >40 mg/day (if doses higher than 20 mg/day were not tolerated, participants could meet inclusion criteria by taking fluoxetine 20 mg/day for >8 weeks); and a current Children's Depression Rating Scale-Revised (CDRS-R) (Poznanski and Mokros 1996) raw score>40. Consistent with the preliminary nature of the study, few exclusion criteria were applied. For example, no restrictions were placed on concomitant medications or psychotherapy. The study's exclusion criteria were: pre-existing renal disease, proteinuria or microalbuminuria at baseline; contraindication to magnetic resonance scanning (e.g. ferromagnetic implants or claustrophobia); primary diagnosis other than MDD; active psychotic symptoms; high risk for suicidal behavior; positive pregnancy test; active alcohol or drug addiction; known or suspected mental retardation; and unstable medical condition.
(§1) Diagnoses were established with the Schedule for Affective Disorders and Schizophrenia for School-Age Children-Present and Lifetime Version (K-SADS-PL) (Kaufman et al. 1997). A complete blood count, metabolic panel, lipid profile, thyroid stimulating hormone, urinalysis and urine microalbumin were obtained to establish that participants were in generally good health, and to rule out the presence of undiagnosed medical conditions. The laboratory studies were repeated at the conclusion of treatment, to prospectively identify any abnormalities associated with creatine administration.
Participants with depression were treated with fixed-dose Creapure® brand of creatine monohydrate (AlzChem LLC, Trostberg, Germany) 4 grams by mouth daily for 8 weeks. At each study visit, the following rating scales were administered: the CDRS ? R, the Clinical Global Impressions scale (Guy 1976) and the Columbia-Suicide Severity Rating Scale (C-SSRS) (Posner 2010). Adverse events were recorded at each study visit. Change in CDRS-R raw score was the primary outcome measure, with C-SSRS results and treatment-emergent adverse events serving as secondary clinical outcomes. ^31P-MRS brain scans were acquired with a Siemens 3 Tesla MRS scanner (Siemens AG, Munich, Germany) that is FDA-approved for clinical use. Two dimensional chemical shift imaging free induction decay (2D CSI FID) pulse sequence with an Fourier voxel resolution of 25×25×25 mm3, Field of View (FOV)=200×200×25 mm3, TR/TE=3000/2.3 ms, vector size=1024, bandwidth=2500 Hz, data collection time=11.2 minutes and the number of averages=24 was implemented to collect 2D CSI FID data using a ^31P/1H double-tuned volume head coil (Clinical MR Solutions LLC, Brookfield, Wis., USA). The proton channel was used for localization, high-resolution anatomic image acquisition and shimming Shimming was performed over the excited volume. 3D high-resolution images used for localization of CSI data were collected using inversion recovery magnetization prepared rapid gradient echo (MP-RAGE) pulse sequence with isotropic 1 mm3 resolution. […]

[2] = test system: brain phosphorus metabolites (PCr, b-NTP, pH); test: 31P-MRS brain scans of phosphorus metabolites at baseline and after 8 weeks of creatine
Protocol: Healthy control female adolescents were recruited for comparison ^31P-MRS scans through IRB-approved advertising. Following informed consent, the K-SADS-PL and CDRS-R were administered to establish the absence of psychiatric disorder(s) or depressive symptoms.
(§2) Participants with depression were treated with fixed-dose Creapure® brand of creatine monohydrate (AlzChem LLC, Trostberg, Germany) 4 grams by mouth daily for 8 weeks. At each study visit, the following rating scales were administered: the CDRS ? R, the Clinical Global Impressions scale (Guy 1976) and the Columbia-Suicide Severity Rating Scale (C-SSRS) (Posner 2010). Adverse events were recorded at each study visit. Change in CDRS-R raw score was the primary outcome measure, with C-SSRS results and treatment-emergent adverse events serving as secondary clinical outcomes. ^31P-MRS brain scans were acquired with a Siemens 3 Tesla MRS scanner (Siemens AG, Munich, Germany) that is FDA-approved for clinical use. Two dimensional chemical shift imaging free induction decay (2D CSI FID) pulse sequence with an Fourier voxel resolution of 25×25×25 mm3, Field of View (FOV)=200×200×25 mm3, TR/TE=3000/2.3 ms, vector size=1024, bandwidth=2500 Hz, data collection time=11.2 minutes and the number of averages=24 was implemented to collect 2D CSI FID data using a ^31P/1H double-tuned volume head coil (Clinical MR Solutions LLC, Brookfield, Wis., USA). The proton channel was used for localization, high-resolution anatomic image acquisition and shimming Shimming was performed over the excited volume. 3D high-resolution images used for localization of CSI data were collected using inversion recovery magnetization prepared rapid gradient echo (MP-RAGE) pulse sequence with isotropic 1 mm3 resolution. The imaging parameters were as follows: TR/TE=2000/3.37 ms, FOV=256×192×144 mm3, and matrix size=256×1 92×144, for a total acquisition time of 4.8 minutes. Participants were instructed during the informed consent process, and again before entering the scanner, that they could discontinue scanning at any point if they experienced discomfort (e.g. claustrophobic anxiety). Non-study personnel trained in research patient advocacy attended each scanning session. The study protocol included two ^31P-MRS scans: one at baseline and a follow-up scan 8 weeks later.
^31P MRS data were analyzed using jMRUI software (jMRUI version 4.0, European Community). A Hamming filter was applied to reduce signal contamination from neighbouring voxels before performing 2D Fast Fourier Transform (FFT) on the raw data. Nine voxel signals from a slice with a thickness of 25 mm located at the corpus callosum, anterior commissure and posterior commissure were summed after 2D FFT. Each voxel FID was apodized with a 10 Hz exponential line broadening before zero filling and FFT. The zero-order and first-order phase correction was performed in all spectrums.
We calculated the signal amplitudes for individual metabolites using AMARES (Advanced Method for Accurate, Robust and Efficient Spectral fitting of MRS data), which is a non-linear, time domain fitting algorithm within the jMRUI software application. The estimated amplitudes of phosphorus metabolites are reported with respect to the total ^31P or beta-NTP amplitude within the time domain signals. The ^31P MRS signal amplitude for each metabolite is directly related to the integrated area under the modeled spectrum in the frequency domain.
The depressed participants' ^31P-MRS brain scans were performed at baseline (prior to the first dose of creatine) and repeated at the conclusion of treatment. We enrolled and acquired baseline scans from ten healthy female adolescent controls; six agreed to return eight weeks later for a second scan. Statistical analyses were performed using JMP 8 (SAS Inc., Cary, N.C. USA). Because this was an open-label pilot study, all analyses were considered exploratory and no correction for multiple hypothesis testing was applied.

[3] = test system: suicidality in female adolescents with MDD; test: Columbia-Suicide Severity Rating Scale (C-SSRS) monitoring during creatine treatment; conditions: for C-SSRS During Treatment With Creatine (Weeks): monohydrate
Protocol: as §2
One participant reported no history of suicidal thoughts or behavior, but the others each endorsed significant histories of suicidality, indicating the severity and chronicity of the participants. Three of the participants had attempted suicide between 5 months and 5 years prior to study entry; at intake, four participants reported suicidal ideation in the 2 weeks prior to their baseline visit. During the treatment phase of the study, two participants reported no suicidality. Three participants reported suicidal ideation as treatment began, which lasted between 2 and 6 weeks. […]

[4] = Adverse events, vital signs and laboratory tests during creatine treatment
From the text: as §1, §2
Participants' vital signs were recorded at each study visit. […] Although not measured systematically, participant and parent acceptance of creatine as a treatment intervention appeared good, and there were no premature terminations due to concerns about the study drug.

[5] = entry vs week 8, creatine 4 g daily adjunctive to fluoxetine, n=5

In the case of CN(CC(=O)O)C(=N)N.O [creatine, creatine monohydrate], the “mean CDRS-R score after eight weeks of treatment” value ([1]; creatine monohydrate 4 g by mouth daily for 8 weeks, adjunctive to fluoxetine, n=5, mean raw score at entry 69) is reported as 30.6, the “decrease of mean CDRS-R raw score” value [1, 5] is reported as 56% and the “mean reduction in CDRS-R raw score (primary outcome measure)” value [1, 5] is reported as 38.4. For the same molecule, the “CDRS-R (Week)” value ([1]; participant 1, week 8, baseline 82, fluoxetine 40 mg) was 24 (8), the “CDRS-R (Week)” value ([1]; participant 2, week 8, baseline 76, fluoxetine 40 mg) was 44 (8) and the “CDRS-R (Week)” value ([1]; participant 3, week 8, baseline 59, fluoxetine 40 mg) was 29 (8). The “CDRS-R (Week)” value ([1]; participant 4, week 8, baseline 66, fluoxetine 20 mg) was 23 (8), the “CDRS-R (Week)” value ([1]; participant 5, week 8, baseline 62, fluoxetine 40 mg) was 33 (8) and the “mean CDRS-R raw score at week ten” value ([1]; two weeks after discontinuation of creatine, compared with week 8) was “lower than at the conclusion of treatment”. For the same molecule, the “PCr-TP, Mean 8 Weeks” value ([2]; MDD group n=5 after 8 weeks creatine 4 g daily, mean baseline 0.1525, p 0.020 paired t-test) was 0.1610, the “b-NTP/TP, Mean 8 Weeks” value ([2]; MDD group n=5 after 8 weeks creatine, mean baseline 0.125, p 0.729) was 0.128 and the “PCr/b-NTP, Mean 8 Weeks” value ([2]; MDD group n=5 after 8 weeks creatine, mean baseline 1.221, p 0.528) was 1.270. For the same molecule, the “pH, Mean 8 Weeks” value ([2]; MDD group n=5 after 8 weeks creatine, mean baseline 7.059, p 0.648) was 7.071, the “change in mean PCr/b-NTP ratio” value ([2]; following 8 weeks of treatment) was “no change” and the “change in mean b-NTP” value ([2]; following 8 weeks of treatment) was “no change”. For the same molecule, the “change in mean pH” value ([2]; following 8 weeks of treatment) was “no change”, the “change in mean PCr” value ([2]; following 8 weeks of treatment, p=0.020, paired t-test, 2-tailed) was “significant increase” and the “duration of suicidal ideation reported as treatment began” value ([3]; in vivo) was 2-6 weeks. For the same molecule, the “outcome of participants' suicidal thoughts” value ([3]; in vivo) was “resolved during treatment with creatine and did not recur”, the “C-SSRS During Treatment With Creatine (Weeks)” value ([3]; participant 3, baseline: wish to be dead 1 week prior to study drug) was “Wish to be Dead (1)” and the “C-SSRS During Treatment With Creatine (Weeks)” value ([3]; participant 4, baseline: wish to be dead 1 week prior to study entry) was “Wish to be Dead (1-5)”. The “Serious Adverse Events (SAEs)” value ([4]; in vivo) was “no Serious Adverse Events”, the “changes in weight, blood pressure or heart rate” value ([4]; in vivo) was “No statistically significant changes” and the “course of adverse events” value ([4]; in vivo) was “self-limited”. For the same molecule, the “microalbuminuria or serum creatinine outside the reference range” value ([4]; in vivo) was “No participant developed microalbuminuria or a serum creatinine outside the reference range”, the tolerability ([4]; in vivo) was “well tolerated” and the “withdrawal due to treatment emergent adverse effects or lack of efficacy” value ([4]; in vivo) was “No participant withdrew”. The “Adverse Events” value ([4]; participant 3, * = possibly or probably related to study drug, monohydrate) was “H1N1 influenza*”.
